From patent US20080009546A1 (Chevron U.S.A. Inc., priority 2005, published 2008)

Test: Dissolving compounds to make 10 mM stock solution
Format: physicochemical
Conditions: deionized water or assay friendly solvents, hot water
Experimental: Following assay establishment, the test compounds were tested for binding affinities. The concentrations selected for the experiments were chosen according to what was found for memantine in our assay. The first task was to dissolve the compounds and make up the 10 mM stock solution for further experiments. Those compounds that were made into salt format were easy to dissolve in deionized water, but the other compounds were difficult to bring into solution. Several “assay friendly” solvents have been tried, such as molecusol, acetic acid and propylene glycol followed by putting the vial into hot water.

O=C(O)C12CC3CC4C1CC1CC2C(C3)C4(C(=O)O)C1 [MDT-19]
dissolution for 10 mM stock solution: did not go into solution, or came out with time
